Assay results published in patent US20060045953A1 (priority 2004, published 2006).
pEC50: −log10 of the molar value. Read-outs that look alike come from different tables or passages of the source.

What was measured:
[1] = target: T1, hT1R2/hT1R3 sweet receptor (Homo sapiens, UniProt Q7RTX0+Q8TE23); test: In vitro hT1R2/hT1R3 sweet taste receptor activation assay (FLIPR, dose response); type: cell-based
T1 construct: expressed in transfected cells; host or cells: HEK293 derivative stably expressing Gα15, clone S-9
T1 sequence (Q8TE23 20-839): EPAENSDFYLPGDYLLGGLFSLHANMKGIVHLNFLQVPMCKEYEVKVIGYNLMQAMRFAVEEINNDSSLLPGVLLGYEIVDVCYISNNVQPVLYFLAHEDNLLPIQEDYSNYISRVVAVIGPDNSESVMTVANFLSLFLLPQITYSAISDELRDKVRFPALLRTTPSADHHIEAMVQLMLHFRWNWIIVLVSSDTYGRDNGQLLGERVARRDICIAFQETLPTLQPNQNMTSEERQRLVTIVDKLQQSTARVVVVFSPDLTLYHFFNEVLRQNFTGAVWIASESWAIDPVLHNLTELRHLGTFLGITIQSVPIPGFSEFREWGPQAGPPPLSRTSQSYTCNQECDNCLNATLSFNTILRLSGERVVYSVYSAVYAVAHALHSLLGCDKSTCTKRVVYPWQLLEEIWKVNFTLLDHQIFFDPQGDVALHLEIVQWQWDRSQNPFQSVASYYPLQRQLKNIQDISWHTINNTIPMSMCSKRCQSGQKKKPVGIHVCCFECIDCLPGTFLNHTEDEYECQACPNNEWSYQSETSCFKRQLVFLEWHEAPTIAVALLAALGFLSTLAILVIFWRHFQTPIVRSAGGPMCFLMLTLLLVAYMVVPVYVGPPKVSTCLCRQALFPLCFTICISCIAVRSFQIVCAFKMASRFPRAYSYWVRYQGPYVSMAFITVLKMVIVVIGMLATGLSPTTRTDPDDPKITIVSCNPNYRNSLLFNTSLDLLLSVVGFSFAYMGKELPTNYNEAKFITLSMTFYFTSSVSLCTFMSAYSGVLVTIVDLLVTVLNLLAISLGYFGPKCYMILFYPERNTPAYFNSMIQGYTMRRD
T1 sequence (Q7RTX0 21-852): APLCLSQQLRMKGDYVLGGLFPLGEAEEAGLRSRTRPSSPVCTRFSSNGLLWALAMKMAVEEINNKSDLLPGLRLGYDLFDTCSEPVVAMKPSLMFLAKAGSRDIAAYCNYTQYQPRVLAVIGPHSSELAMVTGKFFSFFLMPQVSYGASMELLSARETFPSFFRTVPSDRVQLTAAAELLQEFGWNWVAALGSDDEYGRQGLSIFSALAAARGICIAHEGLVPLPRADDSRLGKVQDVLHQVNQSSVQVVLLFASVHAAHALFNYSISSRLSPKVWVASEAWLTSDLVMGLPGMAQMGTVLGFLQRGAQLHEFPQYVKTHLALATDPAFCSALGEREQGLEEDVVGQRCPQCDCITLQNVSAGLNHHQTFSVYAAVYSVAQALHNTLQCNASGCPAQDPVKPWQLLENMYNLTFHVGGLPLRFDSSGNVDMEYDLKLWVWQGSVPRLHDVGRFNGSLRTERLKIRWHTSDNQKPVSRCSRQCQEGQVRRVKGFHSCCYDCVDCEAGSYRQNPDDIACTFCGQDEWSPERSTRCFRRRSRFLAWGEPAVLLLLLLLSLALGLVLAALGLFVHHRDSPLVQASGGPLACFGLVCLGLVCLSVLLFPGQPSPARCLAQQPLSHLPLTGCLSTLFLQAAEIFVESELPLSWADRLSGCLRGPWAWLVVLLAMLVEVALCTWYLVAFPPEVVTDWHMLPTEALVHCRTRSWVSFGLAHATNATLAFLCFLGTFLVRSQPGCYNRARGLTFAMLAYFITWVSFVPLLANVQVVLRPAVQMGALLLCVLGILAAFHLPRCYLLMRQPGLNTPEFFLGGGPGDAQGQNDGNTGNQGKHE
Outline: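 Dose-response at 10 concentrations (60 nM–30 µM, duplicates) measured as Fluo-3AM calcium fluorescence on FLIPR in hT1R2/hT1R3 S-9 cells, in D-PBS at room temperature. Responses scaled to 400 mM D-fructose. EC50s from regression with all curve parameters floating.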

[2] = target: T2, hT1R1/hT1R3 umami receptor (Homo sapiens, UniProt Q7RTX0+Q7RTX1); test: In vitro hT1R1/hT1R3 umami taste receptor activation assay (FLIPR, dose response); type: cell-based; settings: Table E; read-out: Umami EC50
T2 construct: expressed in transfected cells; host or cells: HEK293 derivative stably expressing Gα15, clone I-17, expression induced with mifepristone
T2 sequence (Q7RTX1 21-841): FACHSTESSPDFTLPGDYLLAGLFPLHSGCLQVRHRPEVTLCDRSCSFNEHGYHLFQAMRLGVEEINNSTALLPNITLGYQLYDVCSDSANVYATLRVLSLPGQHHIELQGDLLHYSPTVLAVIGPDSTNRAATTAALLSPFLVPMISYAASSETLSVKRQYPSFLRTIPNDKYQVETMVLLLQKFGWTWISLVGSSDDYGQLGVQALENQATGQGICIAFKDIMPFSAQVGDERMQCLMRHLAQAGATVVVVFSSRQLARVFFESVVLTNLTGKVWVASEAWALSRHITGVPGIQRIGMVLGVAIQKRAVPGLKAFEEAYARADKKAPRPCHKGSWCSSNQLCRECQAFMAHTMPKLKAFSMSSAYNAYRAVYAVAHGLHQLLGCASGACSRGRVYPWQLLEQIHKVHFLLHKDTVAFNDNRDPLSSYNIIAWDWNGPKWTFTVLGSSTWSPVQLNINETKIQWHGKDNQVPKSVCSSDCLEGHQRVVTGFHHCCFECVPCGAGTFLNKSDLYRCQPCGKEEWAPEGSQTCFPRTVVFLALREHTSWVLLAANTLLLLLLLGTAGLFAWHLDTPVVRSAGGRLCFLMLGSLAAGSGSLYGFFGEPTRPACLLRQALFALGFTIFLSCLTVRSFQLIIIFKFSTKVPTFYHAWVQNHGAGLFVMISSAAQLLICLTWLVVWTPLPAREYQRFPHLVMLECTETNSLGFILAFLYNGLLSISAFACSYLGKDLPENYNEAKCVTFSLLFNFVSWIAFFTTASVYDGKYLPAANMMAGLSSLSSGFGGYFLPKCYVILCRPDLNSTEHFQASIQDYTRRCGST
T2 sequence (Q7RTX0 21-852): T1 sequence (Q7RTX0 21-852)

[3] = Table E, Sweet Enhancer Amides, read-out: Sweet EC50
[4] = read-out: EC50 for activation of a hT1R2/hT1R3 sweet receptor expressed in an HEK293 cell line

Row | Compound | pEC50 [1, 3] | also measured
1 | CCCC(CCC)NC(=O)c1cccc(C(F)(F)F)c1 [Example E68, N-(heptan-4-yl)-3-(trifluoromethyl)benzamide] | 5.52 | pEC50 [2]: 6.48
2 | O=C(N[C@@H]1CCCc2ccccc21)c1cccc(O)c1O [Example E17, (R)-2,3-dihydroxy-N-(1,2,3,4-tetrahydronaphthalen-1-yl)benzamide] | 5.50 | 
3 | Cc1ccc(NC(=O)c2ccc(Cl)c(C)c2)c(C)c1 [Example E92, 4-chloro-N-(2,4-dimethylphenyl)-3-methylbenzamide] | 5.56 | 
4 | COc1ccc(NC(=O)N2CCc3ccccc3C2)c(OC)c1 [Example E113, N-(2,4-dimethoxyphenyl)-3,4-dihydroisoquinoline-2(1H)-carboxamide] | 5.35 | 
5 | CC1CCCCC1NC(=O)c1cc(Cl)ccc1Cl (stereo not drawn) [Example E33, 2,5-dichloro-N-(2-methylcyclohexyl)benzamide] | 6.20 | 
6 | N#Cc1ccc(NC(=O)c2c(Cl)cccc2Cl)cc1 [Example E91, 2,6-Dichloro-N-(4-cyano-phenyl)-benzamide] | 5.56 | 
7 | CC(C)(C)c1csc(NC(=O)c2ccncc2)n1 [Example E96, N-(4-tert-Butyl-thiazol-2-yl)-isonicotinamide] | 5.43 | 
8 | C=CCc1c(F)c(F)c(C(=O)NC2CCCCC2)c(F)c1F [Example E132, 4-allyl-N-cyclohexyl-2,3,5,6-tetrafluorobenzamide] | 6.26 | 
9 | CC1CCCCC1NC(=O)c1ccc(F)c(F)c1 (stereo not drawn) [Example E81] | 5.36 | 
10 | CCc1nocc1C(=O)N[C@@H]1CCCc2c(C)cc(C)cc21 [Example E128, (R)-N-(5,7-dimethyl-1,2,3,4-tetrahydronaphthalen-1-yl)-3-ethylisoxazole-4-carboxamide] | 5.91 | 
11 | Cc1c(F)c(F)c(C(=O)NC2CCCC(C)C2C)c(F)c1F (stereo not drawn) [Example E43, N-(2,3-dimethylcyclohexyl)-2,3,5,6-tetrafluoro-4-methylbenzamide] | 5.97 | 
12 | COc1ccc2c(c1)CCCC2NC(=O)c1cccc(Cl)c1O (stereo not drawn) [Example E5, 3-chloro-2-hydroxy-N-(6-methoxy-1,2,3,4-tetrahydronaphthalen-1-yl)benzamide] | 5.79 | 
13 | COc1cccc2c1CCCC2NC(=O)c1cccc(-c2ccccc2)c1O (stereo not drawn) [Example E123, 2-hydroxy-N-(5-methoxy-1,2,3,4-tetrahydronaphthalen-1-yl)-3-phenylbenzamide] | 5.59 | 
14 | CC1CCCCC1NC(=O)c1cccc(OC(F)(F)F)c1 (stereo not drawn) [Example E29, N-(2-methylcyclohexyl)-3-(trifluoromethoxy)benzamide] | 6.38 | 
15 | Cc1cc(C)c(C(=O)NC2CCCCC2)c(C)c1 [Example E66, N-cyclohexyl-2,4,6-trimethylbenzamide] | 5.54 | 
16 | Cc1cc(F)c(NC(=O)N2Cc3cccc(C)c3C2)c(F)c1 [Example 194, N-(2,6-difluoro-4-methylphenyl)-4-methylisoindoline-2-carboxamide] |  | pEC50 [1, 4]: 7.22

Row | Compound | pEC50 [1, 3] | also measured
17 | O=C(Nc1ccc(Cl)cc1Cl)N1Cc2ccccc2C1 [Example E107, N-(2,4-dichlorophenyl)isoindoline-2-carboxamide] | 5.38 | 
18 | CC1CCCCC1NC(=O)c1ccc(F)c(Cl)c1 (stereo not drawn) [Example E53, 3-chloro-4-fluoro-N-(2-methylcyclohexyl)benzamide] | 5.77 | 
19 | Cc1c(F)c(F)c(C(=O)N[C@H](C)C(C)C)c(F)c1F [Example E47, (R)-2,3,5,6-tetrafluoro-4-methyl-N-(3-methylbutan-2-yl)benzamide] | 5.90 | 
20 | Cc1cccc(NC(=O)N2CCc3ccccc32)c1C [Example E120, N-(2,3-dimethylphenyl)indoline-1-carboxamide] | 5.62 | 
21 | O=C(N[C@@H]1CCCc2ccccc21)c1cc(O)ccc1O [Example E24, (R)-2,5-dihydroxy-N-(1,2,3,4-tetrahydronaphthalen-1-yl)benzamide] | 5.22 | 
22 | O=C(Nc1ccccc1Cl)N1Cc2ccccc2C1 [Example E106, N-(2-chlorophenyl)isoindoline-2-carboxamide] | 5.41 | 
23 | COc1c(Cl)cc(Cl)c(OC)c1C(=O)NC1CCCCC1C (stereo not drawn) [Example E35, 3,5-dichloro-2,6-dimethoxy-N-(2-methylcyclohexyl)benzamide] | 6.15 | 
24 | O=C(Nc1nnc(C(F)(F)F)s1)c1ccc(F)c(Cl)c1 [Example E87, 3-Chloro-4-fluoro-N-(5-trifluoromethyl-[1,3,4]thiadiazol-2-yl)-benzamide] | 5.81 | 
25 | CC1CCCCC1NC(=O)c1cncc(Br)c1 (stereo not drawn) [Example E62, 5-bromo-N-(2-methylcyclohexyl)nicotinamide] | 5.62 | 
26 | Cc1cccc(C)c1C(=O)NC1CCCCC1C (stereo not drawn) [Example 168, 2,6-dimethyl-N-(2-methylcyclohexyl)benzamide] |  | pEC50 [1, 4]: 5.73
27 | Cc1ccc2c(c1)C(NC(=O)c1cccc(Cl)c1O)CCC2 (stereo not drawn) [Example 178, 3-Chloro-2-hydroxy-N-(7-methyl-1,2,3,4-tetrahydronaphthalen-1-yl)benzamide] |  | pEC50 [1, 4]: 5.83
28 | Cc1cccc(C)c1C(=O)N[C@H]1CCCc2ccccc21 [Example E14, (S)-2,6-dimethyl-N-(1,2,3,4-tetrahydronaphthalen-1-yl)benzamide] | 5.54 | 
29 | COc1cc(C)c(C(=O)NC2CCCCC2C)c(C)c1 (stereo not drawn) [Example 169, 4-methoxy-2,6-dimethyl-N-(2-methylcyclohexyl)benzamide] |  | pEC50 [1, 4]: 5.68
30 | O=C(N[C@@H]1CCCc2ccccc21)c1cncc(Br)c1 [Example E21, (R)-5-bromo-N-(1,2,3,4-tetrahydronaphthalen-1-yl)nicotinamide] | 5.38 | 
31 | COc1ccc(Cl)c(OC)c1C(=O)N[C@H]1CCCc2ccccc21 [Example E20, (S)-3-chloro-2,6-dimethoxy-N-(1,2,3,4-tetrahydronaphthalen-1-yl)benzamide] | 5.38 | 
32 | CC1CCCC(NC(=O)c2cccc(Cl)c2Cl)C1C (stereo not drawn) [Example E76, 2,3-dichloro-N-(2,3-dimethylcyclohexyl)benzamide] | 5.40 | 
